This assay deals with plasma kallikrein (Homo sapiens, UniProt P03952). Put plainly: Inhibition constant for plasma kallikrein. The format is biochemical. The note with it: plasma kallikrein (PK); value used for the dose calculation.

pKi: −log10 of the molar value. Bridges are numbered along the chain shown (N, C = ends). Where no end group is shown, it is not given here.

Sequence of plasma kallikrein (P03952 20-638): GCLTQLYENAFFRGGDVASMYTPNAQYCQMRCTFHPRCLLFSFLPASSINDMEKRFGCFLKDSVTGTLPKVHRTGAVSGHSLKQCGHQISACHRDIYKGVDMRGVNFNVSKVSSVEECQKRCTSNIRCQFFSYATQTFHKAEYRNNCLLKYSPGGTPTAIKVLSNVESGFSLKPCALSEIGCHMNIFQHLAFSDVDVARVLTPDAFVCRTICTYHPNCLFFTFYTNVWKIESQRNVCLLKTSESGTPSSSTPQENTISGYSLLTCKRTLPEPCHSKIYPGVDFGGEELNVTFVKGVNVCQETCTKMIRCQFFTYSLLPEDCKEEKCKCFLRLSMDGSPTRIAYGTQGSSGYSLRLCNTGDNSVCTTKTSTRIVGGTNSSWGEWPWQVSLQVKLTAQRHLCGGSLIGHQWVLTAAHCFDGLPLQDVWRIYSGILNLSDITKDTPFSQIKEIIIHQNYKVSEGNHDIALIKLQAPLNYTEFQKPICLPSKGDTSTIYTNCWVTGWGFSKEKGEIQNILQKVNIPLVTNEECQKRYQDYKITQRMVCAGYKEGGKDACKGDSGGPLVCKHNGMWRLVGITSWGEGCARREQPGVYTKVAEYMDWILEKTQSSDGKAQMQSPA

A word on the pKi: it is the Ki on a negative log10 scale, so that one unit is a factor of ten. Consider “EAMHSFCAFKADDGPCRAAHPRWFFNIFTRQCEEFIYGGCEGNQNRFESLEECKKMCTRD (disulfide 7-57, 16-40, 32-53) [DX88]”, for which the pKi is 10.36.

Source of the values: patent US20090075887A1, “Treatment with Kallikrein Inhibitors” (GENZYME CORPORATION, priority 2007, published 2009).
